Source: PubChem BioAssay AID248 (DTP/NCI, 2004)
“And” between values parts separate entries of the source, which are not always exact repeats. Equal values may be shown once. Inconclusive results and toxic doses are left out. Cut-off read from the data, not from the text of the source: active = T/C of 150% or more; inactive = T/C below 125%.

Test system: L1210 leukemia ip in BDF1 mice, survival T/C
Assay: NCI In Vivo Anticancer Drug Screen. Data for tumor model L1210 Leukemia (intraperitoneal) in B6D2F1 (BDF1) mice
Conditions: endpoint: mean survival time, higher = longer survival
Method in brief: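 Survival endpoint. Drug-treated group vs vehicle group, expressed as T divided by C. Tumor passaged by transplantation.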

[1] = dose: 100.0 mg/kg/injection, schedule: Q01DX001 (ip), vehicle: saline with Tween-80
[2] = dose: 200.0 mg/kg/injection, schedule: Q01DX001 (ip), vehicle: saline with Tween-80
[3] = dose: 400.0 mg/kg/injection, schedule: Q01DX001 (ip), vehicle: saline with Tween-80
[4] = dose: 100.0 mg/kg/injection, schedule: Q01DX009 (ip), vehicle: Klucel (hydroxypropylcellulose) (HPC)
[5] = dose: 100.0 mg/kg/injection, schedule: Q04DX003 (ip), vehicle: Klucel (hydroxypropylcellulose) (HPC)
[6] = dose: 200.0 mg/kg/injection, schedule: Q01DX009 (ip), vehicle: Klucel (hydroxypropylcellulose) (HPC)
[7] = dose: 200.0 mg/kg/injection, schedule: Q04DX003 (ip), vehicle: Klucel (hydroxypropylcellulose) (HPC)
[8] = dose: 400.0 mg/kg/injection, schedule: Q01DX009 (ip), vehicle: Klucel (hydroxypropylcellulose) (HPC)
[9] = dose: 400.0 mg/kg/injection, schedule: Q04DX003 (ip), vehicle: Klucel (hydroxypropylcellulose) (HPC)
[10] = dose: 100.0 mg/kg/injection, schedule: Q01DX001 (ip), vehicle: carboxymethylcellulose (CMC)
[11] = dose: 200.0 mg/kg/injection, schedule: Q01DX001 (ip), vehicle: carboxymethylcellulose (CMC)
[12] = dose: 400.0 mg/kg/injection, schedule: Q01DX001 (ip), vehicle: carboxymethylcellulose (CMC)
[13] = dose: 100.0 mg/kg/injection, schedule: Q01DX009 (ip), vehicle: saline with Tween-80
[14] = dose: 200.0 mg/kg/injection, schedule: Q01DX009 (ip), vehicle: saline with Tween-80
[15] = dose: 100.0 mg/kg/injection, schedule: Q04DX003 (ip), vehicle: saline with Tween-80
[16] = dose: 200.0 mg/kg/injection, schedule: Q04DX003 (ip), vehicle: saline with Tween-80
[17] = dose: 400.0 mg/kg/injection, schedule: Q04DX003 (ip), vehicle: saline with Tween-80
[18] = dose: 100.0 mg/kg/injection, schedule: Q01DX001 (ip), vehicle: saline
[19] = dose: 200.0 mg/kg/injection, schedule: Q01DX001 (ip), vehicle: saline
[20] = dose: 400.0 mg/kg/injection, schedule: Q01DX001 (ip), vehicle: saline
[21] = dose: 100.0 mg/kg/injection, schedule: Q01DX001 (ip), vehicle: Klucel (hydroxypropylcellulose) (HPC)
[22] = dose: 200.0 mg/kg/injection, schedule: Q01DX001 (ip), vehicle: Klucel (hydroxypropylcellulose) (HPC)
[23] = dose: 50.0 mg/kg/injection, schedule: Q04DX002 (ip), vehicle: saline
[24] = dose: 50.0 mg/kg/injection, schedule: Q01DX001 (ip), vehicle: saline
[25] = dose: 100.0 mg/kg/injection, schedule: Q04DX002 (ip), vehicle: saline with Tween-80
[26] = dose: 200.0 mg/kg/injection, schedule: Q04DX002 (ip), vehicle: saline with Tween-80
[27] = dose: 400.0 mg/kg/injection, schedule: Q04DX002 (ip), vehicle: saline with Tween-80
[28] = dose: 100.0 mg/kg/injection, schedule: Q04DX002 (ip), vehicle: saline

Measured: T/C

CCC1=C(C)C(=O)Nc2c3ncnc-3ncn2C1O (stereo not drawn)
inactive: [1] 100 % of control | [2] 105 % of control | [3] 103 % of control

ClCCCCCCCCCCCl
inactive: [4] 94 % of control and 97 % of control | [5] 97 % of control | [6] 94 % of control and 102 % of control | [7] 92 % of control | [8] 92 % of control | [9] 99 % of control

O=C(Nc1ccccc1F)OCCOc1ccc(Br)cc1
inactive: [4] 103 % of control | [6] 97 % of control | [8] 123 % of control

Clc1ccc(N(c2ccccc2)c2ccccc2)cc1
inactive: [10] 115 % of control | [11] 100 % of control | [12] 108 % of control

COc1ccc2c(c1)N(C)CCCC2=O
inactive: dose: 100.0 mg/kg/injection, schedule: Q04DX003 (ip), vehicle: saline 96 % of control | dose: 200.0 mg/kg/injection, schedule: Q04DX003 (ip), vehicle: saline 112 % of control | dose: 400.0 mg/kg/injection, schedule: Q04DX003 (ip), vehicle: saline 87 % of control

OC1CCCCC1c1ccccc1 (stereo not drawn)
inactive: dose: 50.0 mg/kg/injection, schedule: Q01DX009 (ip), vehicle: saline with Tween-80 87 % of control | [13] 87 % of control | [14] 97 % of control

COc1ccc(-c2cnc(C(N)=O)c(=O)[nH]2)cc1
inactive: [15] 88 % of control | [16] 95 % of control | [17] 91 % of control

CCCCCCCCCCCCC1CC(=O)OC1=O (stereo not drawn)
inactive: [4] 97 % of control | [5] 93 % of control | [6] 95 % of control | [7] 91 % of control

COc1ccccc1CN1CCCN(Cc2ccccc2OC)C1c1cc(OC)c(O)c(OC)c1
inactive: [10] 98 % of control | [11] 91 % of control | [12] 96 % of control

C/C=C(\C)c1cc(=O)c2c(C)cc3c(c2o1)C(=O)c1c(O)c(C2CC(C)(N(C)C)C(O)C(C)O2)cc(C2CC(N(C)C)C(O)C(C)O2)c1C3=O (stereo not drawn)
inactive: [1] 120 % of control | [2] 114 % of control

CCCCCCCCC(O)CC (stereo not drawn)
inactive: [4] 93 % of control and 96 % of control | [5] 103 % of control | [6] 96 % of control | [7] 97 % of control | [8] 92 % of control and 105 % of control | [9] 97 % of control

N#Cc1nc[nH]c1C(N)=O
inactive: [18] 94 % of control | [19] 94 % of control | [20] 96 % of control

CS(=O)(=O)OCC(=O)O
inactive: [21] 93 % of control | [22] 97 % of control

CC(=O)CC(=O)Nc1ccccc1C
inactive: dose: 50.0 mg/kg/injection, schedule: Q01DX001 (ip), vehicle: Klucel (hydroxypropylcellulose) (HPC) 100 % of control | [21] 106 % of control | [22] 106 % of control

CC1NCc2c(N)ncnc21 (stereo not drawn)
inactive: [10] 106 % of control | [11] 112 % of control | [12] 98 % of control

Cc1cccc(N)n1
inactive: dose: 25.0 mg/kg/injection, schedule: Q04DX002 (ip), vehicle: saline 89 % of control | [23] 92 % of control

S=C(N/N=C\c1ccccc1)N/N=C/c1ccccc1
inactive: dose: 100.0 mg/kg/injection, schedule: Q04DX002 (ip), vehicle: gum acacia 93 % of control | dose: 200.0 mg/kg/injection, schedule: Q04DX002 (ip), vehicle: gum acacia 96 % of control | dose: 400.0 mg/kg/injection, schedule: Q04DX002 (ip), vehicle: gum acacia 93 % of control

OC(CNc1ccccc1)CN1CCN(CC(O)CNc2ccccc2)CC1 (stereo not drawn)
inactive: [24] 105 % of control | [18] 98 % of control | [19] 94 % of control

COc1ccc(/C=N/NC(=O)c2ccc(O)cc2)cc1
inactive: [4] 100 % of control | [6] 98 % of control | [8] 94 % of control

CCOC(=O)c1nc(SCc2ccccc2)n(Cc2ccccc2)c1C(=O)OCC
inactive: [1] 109 % of control | [13] 104 % of control and 107 % of control | [25] 102 % of control and 108 % of control | [15] 91 % of control | [2] 101 % of control | [14] 102 % of control and 111 % of control | [26] 101 % of control and 87 % of control | [16] 107 % of control | [3] 95 % of control | dose: 400.0 mg/kg/injection, schedule: Q01DX009 (ip), vehicle: saline with Tween-80 101 % of control and 102 % of control | [27] 97 % of control and 104 % of control | [17] 101 % of control

CCOC(=O)c1n[nH]c2ccccc12
inactive: [25] 101 % of control | [26] 106 % of control | [27] 97 % of control

CCCCOC(=O)Oc1ccc(C(=O)Oc2ccc(OCC)cc2)cc1
inactive: [4] 111 % of control | [5] 104 % of control | [6] 106 % of control | [7] 109 % of control | [9] 98 % of control

CN(Cc1ccccc1O)C1CC2CCC1(C)C2(C)C (stereo not drawn)
inactive: [23] 97 % of control | [28] 101 % of control

O=C1c2cc(Br)ccc2NC1(c1c[nH]c2ccc(Br)cc12)c1c[nH]c2ccc(Br)cc12
inactive: [24] 100 % of control | [18] 96 % of control | [19] 93 % of control | [20] 93 % of control

CC(C)(O)c1cnc(OCc2ccccc2)nc1OCc1ccccc1
inactive: [4] 98 % of control | dose: 100.0 mg/kg/injection, schedule: Q04DX003 (ip), vehicle: other 101 % of control | [6] 100 % of control | dose: 200.0 mg/kg/injection, schedule: Q04DX003 (ip), vehicle: other 106 % of control | [8] 103 % of control | dose: 400.0 mg/kg/injection, schedule: Q04DX003 (ip), vehicle: other 101 % of control

COCC/C(COC)=N\N=C(/CCOC)COC
inactive: [24] 97 % of control | [18] 103 % of control | [4] 103 % of control | [19] 106 % of control | [6] 111 % of control | [20] 109 % of control

CNc1cc([N+](=O)[O-])ccc1OCc1ccccc1
inactive: dose: 75.0 mg/kg/injection, schedule: Q01DX009 (ip), vehicle: saline with Tween-80 87 % of control | [15] 89 % of control | dose: 150.0 mg/kg/injection, schedule: Q01DX009 (ip), vehicle: saline with Tween-80 87 % of control | [16] 92 % of control | dose: 300.0 mg/kg/injection, schedule: Q01DX009 (ip), vehicle: saline with Tween-80 91 % of control | [17] 101 % of control

CCOC(=O)/C(=C\C(C(=O)OCC)C(=O)OCC)CC
inactive: [18] 106 % of control | [19] 103 % of control | [20] 95 % of control

COc1ccc(CN2CCCN(Cc3ccc(OC)cc3OC)C2c2cc(OC)ccc2OC)c(OC)c1
inactive: dose: 50.0 mg/kg/injection, schedule: Q01DX001 (ip), vehicle: carboxymethylcellulose (CMC) 114 % of control | [10] 102 % of control | [11] 102 % of control | [12] 108 % of control

O=NN(Cc1ccc(Cl)cc1)C(=O)NCc1ccc(Cl)cc1
inactive: dose: 400.0 mg/kg/injection, schedule: Q01DX Z (ip), vehicle: carboxymethylcellulose (CMC) 104 % of control

O=CNC1CCCCC1c1ccc(C2CCCCC2NC=O)cc1 (stereo not drawn)
inactive: [18] 97 % of control

COc1ccc(CC2COC(O)C2Cc2ccc(OC3OC(CO)C(O)C(O)C3O)c(OC)c2)cc1OC (stereo not drawn)
inactive: [28] 102 % of control | dose: 200.0 mg/kg/injection, schedule: Q04DX002 (ip), vehicle: saline 112 % of control | dose: 400.0 mg/kg/injection, schedule: Q04DX002 (ip), vehicle: saline 87 % of control

CC(C)(C)C(=O)Nc1ccc(NS(=O)(=O)c2ccccc2)cc1
inactive: [15] 102 % of control | [16] 89 % of control | [17] 88 % of control

Cc1cc(OC(=O)Nc2ccccc2)ccc1Cl
inactive: dose: 100.0 mg/kg/injection, schedule: Q04DX002 (ip), vehicle: saline + alcohol 100 % of control | dose: 200.0 mg/kg/injection, schedule: Q04DX002 (ip), vehicle: saline + alcohol 100 % of control | dose: 400.0 mg/kg/injection, schedule: Q04DX002 (ip), vehicle: saline + alcohol 96 % of control
